ChEMBL document CHEMBL1201862, “PubChem BioAssay data set” (2004)
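Results reflect a 48-hour exposure of cells in 96-well plates to compound at five concentrations. At the GI50, growth is halved.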 Activity calls are given as the source filed them. No stated cut-off is given here; in the data, active = GI50 up to about 1.1 µM and inactive = higher.

What was measured:
Experiment in all cases: DTP human tumour cell line panel, 48 h
OVCAR-3 = test system: OVCAR-3
COLO 205 = test system: COLO 205
HL-60 = test system: HL-60
K562 = test system: K562
HCC 2998 = test system: HCC 2998
OVCAR-8 = test system: OVCAR-8
NCI-H522 = test system: NCI-H522
UO-31 = test system: UO-31
A498 = test system: A498
DLD-1 = test system: DLD-1
BT-549 = test system: BT-549
HT-29 = test system: HT-29
UACC-257 = test system: UACC-257
CAKI-1 = test system: CAKI-1
PC-3 = test system: PC-3
SF-295 = test system: SF-295
NCI-H226 = test system: NCI-H226
RPMI-8226 = test system: RPMI-8226
SNB-19 = test system: SNB-19
SK-MEL-2 = test system: SK-MEL-2

Measured: GI50

CC(C)(C)OC(=O)N[C@H]1CC2(C=C(Cl)C(=O)C(Cl)=C2)OC1=O
inactive: OVCAR-3 14.8 µM | COLO 205 3.97 µM | HL-60 2.13 µM | K562 2.46 µM | HCC 2998 16.6 µM | OVCAR-8 17.1 µM | NCI-H522 3.07 µM | UO-31 18.8 µM | A498 4.18 µM | DLD-1 3.66 µM | BT-549 16 µM | HT-29 11.5 µM | UACC-257 13.8 µM | CAKI-1 13.5 µM | PC-3 17.1 µM | SF-295 21.9 µM | NCI-H226 > 59.7 µM | RPMI-8226 2.65 µM | SNB-19 > 100 µM | SK-MEL-2 19.1 µM

Cc1c2nc3ccccc3sc-2cc(=O)c1C
inactive: OVCAR-3 35.3 µM | COLO 205 34.7 µM | HL-60 14.1 µM | K562 24.3 µM | HCC 2998 > 100 µM | OVCAR-8 49.7 µM | NCI-H522 > 57.3 µM | UO-31 36 µM | A498 > 100 µM | DLD-1 12.7 µM | HT-29 > 77.3 µM | UACC-257 10.3 µM | CAKI-1 55 µM | SF-295 61.2 µM | NCI-H226 > 100 µM | RPMI-8226 39.8 µM | SNB-19 > 100 µM | SK-MEL-2 14.4 µM

CCN(CC)CCOc1ccc(C(O)(Cc2ccc(OC)cc2)c2ccccc2)cc1 (stereo not given)
inactive: OVCAR-3 34.1 µM | COLO 205 12 µM | HL-60 7.52 µM | K562 4.39 µM | HCC 2998 14 µM | OVCAR-8 33.6 µM | NCI-H522 20.5 µM | UO-31 22 µM | A498 18.1 µM | DLD-1 18.3 µM | HT-29 3.83 µM | UACC-257 15.7 µM | CAKI-1 21.7 µM | SF-295 17.7 µM | NCI-H226 26.4 µM | RPMI-8226 13.4 µM | SNB-19 24.6 µM | SK-MEL-2 14.9 µM

O=C(O)/C=C/c1ccc(O)c(O)c1 [CAFFEIC ACID]
inactive: OVCAR-3 > 100 µM | COLO 205 > 100 µM | HL-60 > 100 µM | K562 > 100 µM | HCC 2998 > 100 µM | OVCAR-8 > 100 µM | NCI-H522 97.5 µM | UO-31 77.6 µM | A498 > 100 µM | DLD-1 > 100 µM | HT-29 > 100 µM | UACC-257 > 100 µM | CAKI-1 > 100 µM | PC-3 > 100 µM | SF-295 > 100 µM | NCI-H226 > 100 µM | RPMI-8226 > 100 µM | SNB-19 > 100 µM | SK-MEL-2 > 100 µM
